Measurements published in patent US20090093538A1, “Method for treating cancer” (priority 2007, published 2009).

Columns and labels:
[1] = tested on: Hsp70; assay: Cell surface expression of Hsp70, CEM cells (immunofluorescence); format: cell-based; settings: 3 hrs
Description: (§1) After treatment, cells were rinsed one time in PBS then fixed in 2% Paraformaldehyde at room temperature for 20 minutes. Slides with the fixed cells were rinsed with PBS two times. Primary antibody mouse monoclonal anti-Hsp70 (Stressgen SPA-8 10) was diluted 1:100 in PBS and the slides were incubated 1 hour at 37° C. The slides were rinsed two times with PBS. Secondary antibody anti-mouse AlexaFluor 488 (Molecular Probes A-11001) was diluted 1:500 in PBS and the slides were incubated 30 min at 37° C. The slides were rinsed two times in PBS. DAPI (Molecular Probes D-3571) were diluted 1:10,000 in PBS and the slides were incubated at room temperature in dark for 5 min. The slides were rinsed two times in PBS, then once in deionized water and left to dry in dark until almost completely dry. Coverslips were mounted with Prolong Anti-fade Mounting Media (Molecular Probes P-748 1). The images were captured with a monochrome CCD camera SenSys (see FIGS. 27A-D and 28A-D) or by confocal microscopy (see FIG. 29A-E). In FIGS. 27A-D and 28A-D, the bright pink color on the surface of the MCF-7 cells (FIG. 27A-D) or CEM cells (FIG. 28A-D) indicates Hsp70 on the surface of the cells. In FIG. 29A-E the bright green color on the surface of the cell indicates Hsp70 on the surface of the HT29 cells.

[2] = human, in vivo
[3] = tested on: human breast tumor MDA-MB-435; settings: Paclitaxel 5 mg/kg + Compound 1 25 or 50 mg/kg, IV, 3 times a week for 3 weeks, nude mice
Description: The in vivo anti-cancer enhancing effect of novel compounds was assessed in tumor bearing mice using the tumor growth inhibition assay. Tumor cells were implanted by injection of a tumor cell suspension subcutaneously in the flank of a mouse. […] Tumors were measured two times a week. During the course of this assay, animals were monitored daily for signs of toxicity including body weight loss.

[4] = tested on: Hsp70; assay: Hsp70 induction in tumor and non-tumor cells (Western blot); format: cell-based, human; settings: 0.5 μM, 15 hours; MDA-MB-435 vs HMEC and HRE cells
Description: MDA-MB-435, human mammary epithelial (HMEC) […] (see Ross et al., “Systematic variation in gene expression patterns in human cancer cell lines,” Nat. Genet. (2000). 24(3):227-3.), and human renal epithelial (HRE) cells were seeded in 100 mm tissue culture plates at 1.5×10^6 cells/plate and incubated at 37° C. with 5% CO2 for several hours. […] After treatment the cells were lysized and used for Western blot analysis.
Samples were run on a SDS-PAGE gel and proteins were transferred onto a nitrocellulose membrane. Nitrocellulose was blocked with 5% skim milk in TBS with 0.5% Tween at room temperature for 1 hour and then probed with anti-Hsp70 (mouse IgG, sc-24, Santa Cruz) antibody. The nitrocellulose was then probed with secondary antibodies, HRP-conjugated goat anti-rabbit IgG and HRP-conjugated horse anti-mouse IgG (#7074, #7076, Cell Signaling). LumiGLO reagent, 20× Peroxide (#7003, Cell Signaling) was used to visualize gel (see FIG. 25).

[5] = tested on: MSK1; assay: MSK1 phosphorylation, Western blot, MDA-MB-435 cells; format: cell-based, human; settings: 10, 50, 100, 500 or 1000 nM, 4 hours
Description: After treatment the cells were lysized and used for Western blot analysis.
Samples were run on a SDS-PAGE gel and proteins were transferred onto a nitrocellulose membrane by a semi-dry transfer. Nitrocellulose was blocked with 5% skim milk in TBS with 0.5% Tween at room temperature for 1 hour and then probed with anti-p-MSK1 (Thr581) (#9595, Cell Signaling) antibody. The nitrocellulose was then probed with secondary antibodies, HRP-conjugated goat anti-rabbit IgG and HRP-conjugated horse anti-mouse IgG (#7074, #7076, Cell Signaling). LumiGLO reagent, 20× Peroxide (#7003, Cell Signaling) was used to visualize gel (see FIG. 36).
Samples were run on a SDS-PAGE gel and proteins were transferred onto a nitrocellulose membrane by a semi-dry transfer. Nitrocellulose was blocked with 5% skim milk in TBS with 0.5% Tween at room temperature for 1 hour and then probed with anti-p-MSK1 (Thr581) (#9595, Cell Signaling) antibody. Tubulin was used as a normalization control and was probed with Anti-Tubulin (T9026, Sigma) antibody.

[6] = tested on: HMEC and HRE cells; assay: Lysis of target cells by mouse splenocytes (MTS assay); format: cell-based, human; settings: non-cancerous HMEC and HRE cells; 0.1 or 0.5 μM, about 15 hours; splenocytes 10:1, 24 hours
Description: (§2) MDA-MB-435 cells were purchased from American Type culture collection. Human mammary epithelial (HMEC), human renal epithelial (HRE) cells and medium for maintaining the cells were obtained from Cambrex Bioproducts. Mouse splenocytes were isolated form CD1 nude mice (Jackson Lab). […] Mouse splenocytes were isolated from Nude mice and mixed with MDA-MB-435, HMEC and HRE cells at ratio of 10:1. The mixed cells were incubated at 37° C. for 24 hours in the tissue culture medium and MTS assay was performed to measure viability of the cells with an ELISA reader (DYNEX Technologies). Cytotoxicity (C) was calculated based on an equation below: C=[1-([…])]×100%

[7] = tested on: MDA-MB-435 cells; assay: as above; format: cell-based, human; settings: 0.1 or 0.5 μM, about 15 hours, splenocytes 10:1, 24 hours
Description: as §2

[8] = tested on: MDA-MB-435 cells; assay: Cell viability (Cell Counting Kit-8); format: cell-based, human; settings: Homo sapiens, MDA-MB-435; 500 nM, 72 hours post-drug treatment; read-out: reduction of cell viability
Description: The cells were further cultured at 37° C. for 72 hours and cell viability was measured with Cell Counting Kit-8 (Dojindo Laboratories, Cat# CK04).

[9] = tested on: Hsp70; assay: Cell surface expression of Hsp70, HT29 cells (confocal microscopy); format: cell-based, human; settings: HT29, 500 nM, 6 hrs
Description: as §1

[10] = tested on: Hsp70; assay: Phase I trial: plasma Hsp70 (sandwich ELISA); format: in vivo, human; settings: co-administered with paclitaxel
Description: Plasma Hsp70 was measured by a sandwich ELISA kit (Stressgen Bioreagents Victoria, British Columbia, CANADA) according to a modified protocol in house. In brief, Hsp70 in plasma specimens and serial concentrations of Hsp70 standard were captured onto 96-well plate on which anti-Hsp70 antibody was coated. Then captured Hsp70 was detected with a biotinylated anti-Hsp70 antibody followed by incubation with europium-conjugated streptavidin. After each incubation, unbound materials were removed by washing. Finally, antibody-Hsp70 complex was measured by time resolved fluorometry of europium. Concentration of Hsp70 was calculated from a standard curve.

For `CN(NC(=O)CC(=O)NN(C)C(=S)c1ccccc1)C(=S)c1ccccc1` [Compound 1], the “Hsp70 on the surface of cells” value ([1]; 0.05 μM) was “bright pink fluorescent color on the surface of the cells indicating Hsp70”, the “Hsp70 on the surface of cells” value ([1]; 0.1 μM) was “brighter than when cells were treated with 0.05 μM of Compound 1” and the “Hsp70 on the surface of cells” value ([1]; 0.5 μM) was “brighter than when cells were treated with 0.05 μM of Compound 1 but about the same as cells treated with 0.1 KIM”. The serious side effects [2] was “No serious side effects specifically attributable to Compound 1 were observed”, the “anti-tumor activity (tumor volume)” value [3] was “significantly enhanced anti-tumor activity of paclitaxel” and the “induction of Hsp70” value [4] was “preferentially induces Hsp70 in MDA-MB-435 tumor cells compared to non-tumor HMEC, and HRE cells”. For the same molecule, the “phosphorylation of MSK1” value [5] was “induces the phosphorylation of MSK1 in a dose dependent manner”, the “increase in lysis compared to cells treated with DMSO alone” value [6] was “only slightly increased” and the “increase in lysis compared to cells treated with DMSO alone” value [7] was “about 15%”. The cytotoxicity at 0.5 µM [8] was about 90%, the “Hsp70 on the surface of cells” value [9] was “bright green color on the surface of the cells indicating Hsp70” and the “induction of Hsp70 protein in plasma” value [10] was “dose dependent”.
